Source: publication PMC8455565 (Scientific Reports, 2021)

What was measured:
[1] = target: T1, BMX (Homo sapiens, UniProt P51813); test: Kinase selectivity biochemical assay (FRET), BMX
T1 sequence (P51813 1-675): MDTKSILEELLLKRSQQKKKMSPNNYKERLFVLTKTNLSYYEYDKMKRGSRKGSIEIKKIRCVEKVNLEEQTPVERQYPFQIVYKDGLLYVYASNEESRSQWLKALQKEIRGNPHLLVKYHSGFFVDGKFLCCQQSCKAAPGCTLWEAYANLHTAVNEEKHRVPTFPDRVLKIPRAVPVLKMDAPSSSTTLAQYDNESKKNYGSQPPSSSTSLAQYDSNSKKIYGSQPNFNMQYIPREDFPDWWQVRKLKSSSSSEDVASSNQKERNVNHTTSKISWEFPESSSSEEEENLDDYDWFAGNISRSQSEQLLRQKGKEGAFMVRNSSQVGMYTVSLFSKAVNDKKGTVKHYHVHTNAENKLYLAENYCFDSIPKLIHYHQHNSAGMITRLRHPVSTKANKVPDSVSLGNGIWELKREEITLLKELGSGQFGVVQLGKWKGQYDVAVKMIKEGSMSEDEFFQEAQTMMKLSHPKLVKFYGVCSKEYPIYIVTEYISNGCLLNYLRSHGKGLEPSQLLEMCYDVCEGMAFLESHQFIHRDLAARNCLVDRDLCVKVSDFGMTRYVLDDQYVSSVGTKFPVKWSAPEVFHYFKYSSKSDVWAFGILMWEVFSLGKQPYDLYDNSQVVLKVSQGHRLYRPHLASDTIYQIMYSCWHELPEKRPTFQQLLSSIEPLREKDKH

[2] = target: T2, JAK3 (Homo sapiens, UniProt P52333); test: Kinase selectivity biochemical assay, JAK3
T2 sequence (P52333 1-1124): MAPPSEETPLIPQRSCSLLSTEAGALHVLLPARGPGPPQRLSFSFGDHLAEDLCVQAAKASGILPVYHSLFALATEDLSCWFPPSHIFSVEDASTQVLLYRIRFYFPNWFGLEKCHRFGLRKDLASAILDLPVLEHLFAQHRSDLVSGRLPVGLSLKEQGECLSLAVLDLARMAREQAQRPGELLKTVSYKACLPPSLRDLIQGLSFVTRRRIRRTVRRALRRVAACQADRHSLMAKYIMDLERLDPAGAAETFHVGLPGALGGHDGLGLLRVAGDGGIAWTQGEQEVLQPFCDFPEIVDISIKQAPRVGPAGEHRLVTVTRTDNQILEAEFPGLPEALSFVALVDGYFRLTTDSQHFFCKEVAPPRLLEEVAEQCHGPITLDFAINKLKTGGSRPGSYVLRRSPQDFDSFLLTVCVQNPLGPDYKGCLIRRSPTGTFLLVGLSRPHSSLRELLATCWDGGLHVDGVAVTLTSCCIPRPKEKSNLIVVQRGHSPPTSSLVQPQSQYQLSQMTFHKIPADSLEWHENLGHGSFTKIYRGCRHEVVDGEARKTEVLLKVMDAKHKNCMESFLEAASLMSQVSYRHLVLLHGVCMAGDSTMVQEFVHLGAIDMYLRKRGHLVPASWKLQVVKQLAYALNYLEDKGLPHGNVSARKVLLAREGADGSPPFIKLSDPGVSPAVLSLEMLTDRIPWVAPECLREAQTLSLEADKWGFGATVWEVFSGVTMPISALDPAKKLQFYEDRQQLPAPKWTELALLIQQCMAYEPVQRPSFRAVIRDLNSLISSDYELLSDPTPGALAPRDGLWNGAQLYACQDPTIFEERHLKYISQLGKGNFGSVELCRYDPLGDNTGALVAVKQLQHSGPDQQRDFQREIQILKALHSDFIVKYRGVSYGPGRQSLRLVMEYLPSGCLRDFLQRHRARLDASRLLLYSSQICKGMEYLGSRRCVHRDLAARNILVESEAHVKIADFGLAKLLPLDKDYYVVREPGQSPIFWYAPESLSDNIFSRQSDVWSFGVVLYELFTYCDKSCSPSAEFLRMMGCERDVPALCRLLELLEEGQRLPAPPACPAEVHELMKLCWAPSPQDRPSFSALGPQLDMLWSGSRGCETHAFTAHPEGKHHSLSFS

[3] = target: T3, TEC (Homo sapiens, UniProt P42680); test: Kinase biochemical assay (FRET), TEC; conditions: read-out: inhibitory activity on TEC
T3 sequence (P42680 1-631): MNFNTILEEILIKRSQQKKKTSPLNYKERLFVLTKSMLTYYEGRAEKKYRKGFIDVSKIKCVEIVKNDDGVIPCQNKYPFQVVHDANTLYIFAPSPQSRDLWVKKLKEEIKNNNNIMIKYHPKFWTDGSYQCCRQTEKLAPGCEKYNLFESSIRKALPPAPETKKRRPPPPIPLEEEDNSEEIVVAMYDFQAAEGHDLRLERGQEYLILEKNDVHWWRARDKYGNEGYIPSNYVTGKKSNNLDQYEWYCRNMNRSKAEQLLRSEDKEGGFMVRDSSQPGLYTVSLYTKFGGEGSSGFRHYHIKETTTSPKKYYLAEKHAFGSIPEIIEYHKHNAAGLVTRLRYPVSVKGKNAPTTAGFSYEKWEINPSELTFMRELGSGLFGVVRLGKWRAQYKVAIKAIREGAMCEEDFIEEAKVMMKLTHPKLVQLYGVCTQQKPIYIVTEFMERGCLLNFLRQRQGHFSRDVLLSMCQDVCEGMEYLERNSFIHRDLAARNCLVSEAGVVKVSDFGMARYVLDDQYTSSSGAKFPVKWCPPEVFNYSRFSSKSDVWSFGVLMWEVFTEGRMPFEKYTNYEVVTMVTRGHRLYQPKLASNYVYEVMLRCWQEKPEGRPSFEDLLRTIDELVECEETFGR

[4] = tested on: B cells (IgM+CD40L); test: High-dimensional phosphorylation analysis, B cells (IgM+CD40L); type: cell-based, human
Procedure: The analysis measured 94 intracellular signaling nodes (81 phosphorylation sites, 10 total protein levels and 3 methylation/acetylation sites) in stimulated immune cells, including B cells (IgM plus CD40L), CD4 + and CD8 + T cells (IL-2; CD3 plus CD28), monocytes (M-CSF), NK cells (IL-2), and granulocytes (LPS).

[5] = target: BTK (Homo sapiens, UniProt Q06187); test: BTK occupancy in whole blood ex vivo; type: cell-based; design: from tissue; host or cells: whole blood
[6] = 30 μM, all time points (2, 5, 15, 60 min)

Sequence of BTK (Q06187 whole entry): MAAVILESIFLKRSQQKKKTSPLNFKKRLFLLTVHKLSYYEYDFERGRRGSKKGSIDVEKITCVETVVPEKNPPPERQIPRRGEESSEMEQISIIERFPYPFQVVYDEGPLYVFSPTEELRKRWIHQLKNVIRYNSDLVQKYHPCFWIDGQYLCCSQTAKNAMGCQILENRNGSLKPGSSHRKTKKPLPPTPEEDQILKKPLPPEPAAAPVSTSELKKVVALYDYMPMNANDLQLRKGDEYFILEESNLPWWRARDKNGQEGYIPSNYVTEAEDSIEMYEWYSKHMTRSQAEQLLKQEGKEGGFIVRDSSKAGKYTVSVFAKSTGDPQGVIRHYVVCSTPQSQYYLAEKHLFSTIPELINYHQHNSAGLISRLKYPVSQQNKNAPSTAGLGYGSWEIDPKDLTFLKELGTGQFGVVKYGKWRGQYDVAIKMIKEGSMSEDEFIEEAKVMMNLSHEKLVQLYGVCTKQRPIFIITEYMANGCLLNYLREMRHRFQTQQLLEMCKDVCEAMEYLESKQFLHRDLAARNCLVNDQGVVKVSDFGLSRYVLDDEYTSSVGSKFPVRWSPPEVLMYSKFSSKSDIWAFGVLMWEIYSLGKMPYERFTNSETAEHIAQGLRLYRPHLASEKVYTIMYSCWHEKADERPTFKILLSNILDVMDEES

IC50 [1]: < 10 nM
selectivity toward BTK over JAK3 [2]: 7.5 ×
IC50 [3]: < 10 nM
IC50 [5]: 160 nM
SMILES: C=CC(=O)Nc1cccc(Oc2nc(Nc3ccc(N4CCN(C)CC4)cc3)nc3ccoc23)c1 [Poseltinib]
Akt phosphorylation, Log2Ratio Stim/Control ([4]; 30 µM, 5'): -0.97
BTK phosphorylation, Log2Ratio Stim/Control ([4]; 30 µM, 5'): 0.06
CREB1 phosphorylation, Log2Ratio Stim/Control ([4]; 30 µM, 5'): 1.74
MAPK3 phosphorylation, Log2Ratio Stim/Control ([4]; 30 µM, 5'): 1.30
PLCγ2 phosphorylation, Log2Ratio Stim/Control ([4]; 30 µM, 5'): 0.82
RPS6KA1 phosphorylation, Log2Ratio Stim/Control ([4]; 30 µM, 5'): 1.13
RPS6 phosphorylation, Log2Ratio Stim/Control ([4]; 30 µM, 5'): 1.35
SAPK/JNK phosphorylation, Log2Ratio Stim/Control ([4]; 30 µM, 5'): 0.82
SLP76 phosphorylation, Log2Ratio Stim/Control ([4]; 30 µM, 5'): 0.86
WIPF1 phosphorylation, Log2Ratio Stim/Control ([4]; 30 µM, 5'): 1.81
phosphorylation of AKT (S473) [4, 6]: inhibited
phosphorylation of BTK (Y223) [4, 6]: inhibited
phosphorylation of PLCγ2 (Y759) [4, 6]: inhibited
